According to ChEMBL document CHEMBL5143517, “Discovery and radiosensitization research of ursolic acid derivatives as SENP1 inhibitors” (Eur J Med Chem, 2022):

Test: Cytotoxicity against human HeLa cells assessed as inhibition of cell growth incubated for 72 hrs by CCK-8 assay
Format: toxicity, cell-based

SMILES	IC50 at 72 h [µM]
CNC(=O)CCNC(=O)[C@]12CC[C@@H](C)[C@H](C)[C@H]1C1=CC[C@@H]3[C@@]4(C)CC[C@H](O)C(C)(C)[C@@H]4CC[C@@]3(C)[C@]1(C)CC2	> 20
C[C@H]1[C@H](C)CC[C@]2(C(=O)OCCCCN3CCOCC3)CC[C@]3(C)C(=CC[C@@H]4[C@@]5(C)CC[C@H](O)C(C)(C)[C@@H]5CC[C@]43C)[C@H]12	> 20
CC(=O)O[C@H]1CC[C@]2(C)[C@H]3CC=C4[C@@H]5[C@@H](C)[C@H](C)CC[C@]5(C(N)=O)CC[C@@]4(C)[C@]3(C)CC[C@H]2C1(C)C	> 20
C[C@H]1[C@H](C)CC[C@]2(C(=O)OCCN3CCNCC3)CC[C@]3(C)C(=CC[C@@H]4[C@@]5(C)CC[C@H](O)C(C)(C)[C@@H]5CC[C@]43C)[C@H]12	> 20
COC(=O)[C@@H]1CCCN1CCOC(=O)[C@]12CC[C@@H](C)[C@H](C)[C@H]1C1=CC[C@@H]3[C@@]4(C)CC[C@H](O)C(C)(C)[C@@H]4CC[C@@]3(C)[C@]1(C)CC2	> 20
CC(=O)O[C@H]1CC[C@]2(C)[C@H]3CC=C4[C@@H]5[C@@H](C)[C@H](C)CC[C@]5(C(=O)N[C@@H](C)c5ccccc5)CC[C@@]4(C)[C@]3(C)CC[C@H]2C1(C)C	> 20
C[C@H]1[C@H](C)CC[C@]2(C(=O)OCC3CCN(C(=O)OC(C)(C)C)CC3)CC[C@]3(C)C(=CC[C@@H]4[C@@]5(C)CC[C@H](O)C(C)(C)[C@@H]5CC[C@]43C)[C@H]12	> 20
C[C@H]1[C@H](C)CC[C@]2(C(=O)NCCC(=O)O)CC[C@]3(C)C(=CC[C@@H]4[C@@]5(C)CC[C@H](O)C(C)(C)[C@@H]5CC[C@]43C)[C@H]12	> 20
CC(=O)O[C@H]1CC[C@]2(C)[C@H]3CC=C4[C@@H]5[C@@H](C)[C@H](C)CC[C@]5(C(=O)NCC(=O)O)CC[C@@]4(C)[C@]3(C)CC[C@H]2C1(C)C	> 20
CNC(=O)COC(=O)[C@]12CC[C@@H](C)[C@H](C)[C@H]1C1=CC[C@@H]3[C@@]4(C)CC[C@H](O)C(C)(C)[C@@H]4CC[C@@]3(C)[C@]1(C)CC2	> 20
C[C@H]1[C@H](C)CC[C@]2(C(=O)NCC(=O)NCCO)CC[C@]3(C)C(=CC[C@@H]4[C@@]5(C)CC[C@H](O)C(C)(C)[C@@H]5CC[C@]43C)[C@H]12	> 20
C[C@H]1[C@H](C)CC[C@]2(C(=O)NCC(=O)N(C)CCO)CC[C@]3(C)C(=CC[C@@H]4[C@@]5(C)CC[C@H](O)C(C)(C)[C@@H]5CC[C@]43C)[C@H]12	> 20
C[C@H]1[C@H](C)CC[C@]2(C(N)=O)CC[C@]3(C)C(=CC[C@@H]4[C@@]5(C)CC[C@H](O)C(C)(C)[C@@H]5CC[C@]43C)[C@H]12	> 20
C[C@H]1[C@H](C)CC[C@]2(C(=O)N[C@@H](C)c3ccccc3)CC[C@]3(C)C(=CC[C@@H]4[C@@]5(C)CC[C@H](O)C(C)(C)[C@@H]5CC[C@]43C)[C@H]12	> 20
C[C@H]1[C@H](C)CC[C@]2(C(=O)NCCBr)CC[C@]3(C)C(=CC[C@@H]4[C@@]5(C)CC[C@H](O)C(C)(C)[C@@H]5CC[C@]43C)[C@H]12	> 20
C[C@H]1[C@H](C)CC[C@]2(C(=O)NCC(=O)N(CCO)CCO)CC[C@]3(C)C(=CC[C@@H]4[C@@]5(C)CC[C@H](O)C(C)(C)[C@@H]5CC[C@]43C)[C@H]12	> 20
C[C@H]1[C@H](C)CC[C@]2(C(=O)OCCCCN3CCNCC3)CC[C@]3(C)C(=CC[C@@H]4[C@@]5(C)CC[C@H](O)C(C)(C)[C@@H]5CC[C@]43C)[C@H]12	5.7

SMILES	IC50 at 72 h [µM]
C[C@H]1[C@H](C)CC[C@]2(C(=O)OCC(=O)OC(C)(C)C)CC[C@]3(C)C(=CC[C@@H]4[C@@]5(C)CC[C@H](O)C(C)(C)[C@@H]5CC[C@]43C)[C@H]12	> 20
C[C@H]1[C@H](C)CC[C@]2(C(=O)OCCN3CCNC(=O)C3)CC[C@]3(C)C(=CC[C@@H]4[C@@]5(C)CC[C@H](O)C(C)(C)[C@@H]5CC[C@]43C)[C@H]12	> 20
C[C@H]1[C@H](C)CC[C@]2(C(=O)OCC(=O)N(C)CCO)CC[C@]3(C)C(=CC[C@@H]4[C@@]5(C)CC[C@H](O)C(C)(C)[C@@H]5CC[C@]43C)[C@H]12	> 20
C[C@H]1[C@H](C)CC[C@]2(C(=O)OCc3ccccc3)CC[C@]3(C)C(=CC[C@@H]4[C@@]5(C)CC[C@H](O)C(C)(C)[C@@H]5CC[C@]43C)[C@H]12	> 20
C[C@H]1[C@H](C)CC[C@]2(C(=O)OCCN3CCOCC3)CC[C@]3(C)C(=CC[C@@H]4[C@@]5(C)CC[C@H](O)C(C)(C)[C@@H]5CC[C@]43C)[C@H]12	> 20
C[C@H]1[C@H](C)CC[C@]2(C(=O)OCCN3CCN(c4cccc(C(F)(F)F)c4)CC3)CC[C@]3(C)C(=CC[C@@H]4[C@@]5(C)CC[C@H](O)C(C)(C)[C@@H]5CC[C@]43C)[C@H]12	> 20
CC(=O)O[C@H]1CC[C@]2(C)[C@H]3CC=C4[C@@H]5[C@@H](C)[C@H](C)CC[C@]5(C(=O)NCC(N)=O)CC[C@@]4(C)[C@]3(C)CC[C@H]2C1(C)C	> 20
COC(=O)[C@]12CC[C@@H](C)[C@H](C)[C@H]1C1=CC[C@@H]3[C@@]4(C)CC[C@H](OC=O)C(C)(C)[C@@H]4CC[C@@]3(C)[C@]1(C)CC2	> 20
C[C@H]1[C@H](C)CC[C@]2(C(=O)N3CCC[C@H]3C(=O)O)CC[C@]3(C)C(=CC[C@@H]4[C@@]5(C)CC[C@H](O)C(C)(C)[C@@H]5CC[C@]43C)[C@H]12	> 20
C[C@H]1[C@H](C)CC[C@]2(C(=O)OCCCCBr)CC[C@]3(C)C(=CC[C@@H]4[C@@]5(C)CC[C@H](O)C(C)(C)[C@@H]5CC[C@]43C)[C@H]12 [BROMOBUTYL-3BETA-HYDROXY-URS-12-EN-28-OATE]	> 20
C[C@H]1[C@H](C)CC[C@]2(C(=O)OCCBr)CC[C@]3(C)C(=CC[C@@H]4[C@@]5(C)CC[C@H](O)C(C)(C)[C@@H]5CC[C@]43C)[C@H]12	> 20
COC(=O)COC(=O)[C@]12CC[C@@H](C)[C@H](C)[C@H]1C1=CC[C@@H]3[C@@]4(C)CC[C@H](O)C(C)(C)[C@@H]4CC[C@@]3(C)[C@]1(C)CC2 [3BETA-HYDROXY-URS-12-EN-28-METHYL ACETOACETATE]	> 20
CC(=O)O[C@H]1CC[C@]2(C)[C@H]3CC=C4[C@@H]5[C@@H](C)[C@H](C)CC[C@]5(C(=O)O)CC[C@@]4(C)[C@]3(C)CC[C@H]2C1(C)C [O-ACETYLURSOLIC ACID]	> 20
C[C@H]1[C@H](C)CC[C@]2(C(=O)OCC(=O)NCCO)CC[C@]3(C)C(=CC[C@@H]4[C@@]5(C)CC[C@H](O)C(C)(C)[C@@H]5CC[C@]43C)[C@H]12	> 20
CNC(=O)CN(C)C(=O)[C@]12CC[C@@H](C)[C@H](C)[C@H]1C1=CC[C@@H]3[C@@]4(C)CC[C@H](OC(C)=O)C(C)(C)[C@@H]4CC[C@@]3(C)[C@]1(C)CC2	> 20
CNC(=O)CN(C)C(=O)[C@]12CC[C@@H](C)[C@H](C)[C@H]1C1=CC[C@@H]3[C@@]4(C)CC[C@H](O)C(C)(C)[C@@H]4CC[C@@]3(C)[C@]1(C)CC2	> 20
